The values below are quoted from earlier work in EP4656183A1, “TIRZEPATIDE COMPOSITIONS AND PREPARATION METHOD” (Galenicum Health SLU, priority 2024, dated 2025).

The conditions of the data set: buffer; several values = successive pKa values.

In the case of `O=S(=O)(O)CCN1CCN(CCO)CC1` [HEPES], the pKa was ~ 7.5.
